Each block holds one molecule with its values, some of them ahead of it.
What was measured:
Format in all cases: ADME, organism-based
[1] = AUC (0 to infinity) in Wistar rat extracellular fluid at […], sc by HPLC-MS/MS analysis; design: dose 1.6 mg/kg, route subcutaneous, time infinity
[2] = Cmax in Wistar rat extracellular fluid at […], sc by HPLC-MS/MS analysis; design: dose 1.6 mg/kg, route subcutaneous
[3] = Tmax in Wistar rat extracellular fluid at […], sc by HPLC-MS/MS analysis; design: dose 1.6 mg/kg, route subcutaneous
Rattus norvegicus [4] = assay: Central volume of distribution in Wistar rat extracellular fluid at […], sc by HPLC-MS/MS analysis; design: dose 1.6 mg/kg, route subcutaneous; settings: in vivo
[5] = Fraction unbound in Wistar rat plasma at […], sc by HPLC-MS/MS analysis; design: dose 1.6 mg/kg, route subcutaneous
Plasma [6] = assay: Unbound AUC (0 to infinity) in Wistar rat plasma at […], sc by HPLC-MS/MS analysis; design: dose 1.6 mg/kg, route subcutaneous; settings: in vivo
Plasma [7] = assay: Unbound Cmax in Wistar rat plasma at […], sc by HPLC-MS/MS analysis; design: dose 1.6 mg/kg, route subcutaneous; settings: in vivo
[8] = Unbound Tmax in Wistar rat plasma at […], sc by HPLC-MS/MS analysis; design: dose 1.6 mg/kg, route subcutaneous; settings: read-out: fTmax (converted)
[9] = Systemic clearance in Wistar rat extracellular fluid at […], sc by HPLC-MS/MS analysis; design: dose 1.6 mg/kg, route subcutaneous
Rattus norvegicus [10] = assay: Absorption rate constant in Wistar rat extracellular fluid at […], sc by HPLC-MS/MS analysis; design: dose 1.6 mg/kg, route subcutaneous; settings: in vivo
Brain [11] = assay: Unbound volume of distribution in Wistar rat brain at […], sc by HPLC-MS/MS analysis; design: dose 1.6 mg/kg, route subcutaneous; settings: in vivo
[12] = Ratio of uptake clearance to efflux clearance in Wistar rat brain extracellular fluid at […], sc by HPLC-MS/MS analysis; design: dose 1.6 mg/kg, route subcutaneous; settings: in vivo
[13] = Ratio of unbound AUC in extracellular fluid to unbound AUC in plasma of Wistar rat at […], sc by HPLC-MS/MS analysis; design: dose 1.6 mg/kg, route subcutaneous; settings: read-out: Ratio AUC
[14] = Ratio of steady state drug level in extracellular fluid to unbound drug level in plasma of Wistar rat at […], sc by HPLC-MS/MS analysis; design: dose 1.6 mg/kg, route subcutaneous
[15] = Equilibration rate constant in Wistar rat brain extracellular fluid at […], sc by HPLC-MS/MS analysis; design: dose 1.6 mg/kg, route subcutaneous; settings: in vivo
[16] = AUC (0 to infinity) in Wistar rat extracellular fluid at 3 mg/kg, sc by HPLC-MS/MS analysis; design: time infinity, dose 3 mg/kg, route subcutaneous
[17] = Cmax in Wistar rat extracellular fluid at 3 mg/kg, sc by HPLC-MS/MS analysis; design: dose 3 mg/kg, route subcutaneous
[18] = Tmax in Wistar rat extracellular fluid at 3 mg/kg, sc by HPLC-MS/MS analysis; design: dose 3 mg/kg, route subcutaneous
Rattus norvegicus [19] = assay: Central volume of distribution in Wistar rat extracellular fluid at 3 mg/kg, sc by HPLC-MS/MS analysis; design: dose 3 mg/kg, route subcutaneous; settings: in vivo
[20] = Fraction unbound in Wistar rat plasma at 3 mg/kg, sc by HPLC-MS/MS analysis; design: dose 3 mg/kg, route subcutaneous
Plasma [21] = assay: Unbound AUC (0 to infinity) in Wistar rat plasma at 3 mg/kg, sc by HPLC-MS/MS analysis; design: dose 3 mg/kg, route subcutaneous; settings: in vivo
Plasma [22] = assay: Unbound Cmax in Wistar rat plasma at 3 mg/kg, sc by HPLC-MS/MS analysis; design: dose 3 mg/kg, route subcutaneous; settings: in vivo
[23] = Unbound Tmax in Wistar rat plasma at 3 mg/kg, sc by HPLC-MS/MS analysis; design: dose 3 mg/kg, route subcutaneous; settings: read-out: fTmax (converted)
[24] = Systemic clearance in Wistar rat extracellular fluid at 3 mg/kg, sc by HPLC-MS/MS analysis; design: dose 3 mg/kg, route subcutaneous
Rattus norvegicus [25] = assay: Absorption rate constant in Wistar rat extracellular fluid at 3 mg/kg, sc by HPLC-MS/MS analysis; design: dose 3 mg/kg, route subcutaneous; settings: in vivo
Brain [26] = assay: Unbound volume of distribution in Wistar rat brain at 3 mg/kg, sc by HPLC-MS/MS analysis; design: dose 3 mg/kg, route subcutaneous; settings: in vivo
[27] = Ratio of uptake clearance to efflux clearance in Wistar rat brain extracellular fluid at 3 mg/kg, sc by HPLC-MS/MS analysis; design: dose 3 mg/kg, route subcutaneous; settings: in vivo
[28] = Ratio of unbound AUC in extracellular fluid to unbound AUC in plasma of Wistar rat at 3 mg/kg, sc by HPLC-MS/MS analysis; design: dose 3 mg/kg, route subcutaneous; settings: read-out: Ratio AUC
[29] = Ratio of steady state drug level in extracellular fluid to unbound drug level in plasma of Wistar rat at 3 mg/kg, sc by HPLC-MS/MS analysis; design: dose 3 mg/kg, route subcutaneous
[30] = Equilibration rate constant in Wistar rat brain extracellular fluid at 3 mg/kg, sc by HPLC-MS/MS analysis; design: dose 3 mg/kg, route subcutaneous; settings: in vivo
[31] = AUC (0 to infinity) in Wistar rat extracellular fluid at 10 mg/kg, sc by HPLC-MS/MS analysis; design: time infinity, dose 10 mg/kg, route subcutaneous
[32] = Cmax in Wistar rat extracellular fluid at 10 mg/kg, sc by HPLC-MS/MS analysis; design: dose 10 mg/kg, route subcutaneous
[33] = Tmax in Wistar rat extracellular fluid at 10 mg/kg, sc by HPLC-MS/MS analysis; design: dose 10 mg/kg, route subcutaneous
[34] = AUC (0 to infinity) in rat; design: time infinity; settings: plasma
[35] = Fraction unbound in Wistar rat plasma at 10 mg/kg, sc by HPLC-MS/MS analysis; design: dose 10 mg/kg, route subcutaneous
Plasma [36] = assay: Unbound AUC (0 to infinity) in Wistar rat plasma at 10 mg/kg, sc by HPLC-MS/MS analysis; design: dose 10 mg/kg, route subcutaneous; settings: in vivo
Plasma [37] = assay: Unbound Cmax in Wistar rat plasma at 10 mg/kg, sc by HPLC-MS/MS analysis; design: dose 10 mg/kg, route subcutaneous; settings: in vivo
[38] = Unbound Tmax in Wistar rat plasma at 10 mg/kg, sc by HPLC-MS/MS analysis; design: dose 10 mg/kg, route subcutaneous; settings: read-out: fTmax (converted)
Brain [39] = assay: Unbound volume of distribution in Wistar rat brain at 10 mg/kg, sc by HPLC-MS/MS analysis; design: dose 10 mg/kg, route subcutaneous; settings: in vivo
[40] = Ratio of unbound AUC in extracellular fluid to unbound AUC in plasma of Wistar rat at 10 mg/kg, sc by HPLC-MS/MS analysis; design: dose 10 mg/kg, route subcutaneous; settings: read-out: Ratio AUC
[41] = Ratio of steady state drug level in extracellular fluid to unbound drug level in plasma of Wistar rat at 10 mg/kg, sc by HPLC-MS/MS analysis; design: dose 10 mg/kg, route subcutaneous
Rattus norvegicus [42] = assay: Central volume of distribution in Wistar rat extracellular fluid at 10 mg/kg, sc by HPLC-MS/MS analysis; design: dose 10 mg/kg, route subcutaneous; settings: in vivo
[43] = Systemic clearance in Wistar rat extracellular fluid at 10 mg/kg, sc by HPLC-MS/MS analysis; design: dose 10 mg/kg, route subcutaneous
Rattus norvegicus [44] = assay: Absorption rate constant in Wistar rat extracellular fluid at 10 mg/kg, sc by HPLC-MS/MS analysis; design: dose 10 mg/kg, route subcutaneous; settings: in vivo
[45] = Ratio of uptake clearance to efflux clearance in Wistar rat brain extracellular fluid at 10 mg/kg, sc by HPLC-MS/MS analysis; design: dose 10 mg/kg, route subcutaneous; settings: in vivo
[46] = Equilibration rate constant in Wistar rat brain extracellular fluid at 10 mg/kg, sc by HPLC-MS/MS analysis; design: dose 10 mg/kg, route subcutaneous; settings: in vivo

AUC(0-inf) [1]: 0.197 µM·h | Cmax [2]: 62 nM | Tmax [3]: 2 h | Vd (Rattus norvegicus [4]): 4.1 L/kg | fraction unbound [5]: 0.5 | fAUC (Plasma [6]): 13888 nM·min | fCmax (Plasma [7]): 131 nM | Tmax [8]: 0.433 h | CL/F [9]: 277 mL/min/kg | ka (Rattus norvegicus [10]): 0.02 min⁻¹ | Vdu (Brain [11]): 18 mL/g | Ratio [12]: 1.24 | Kp uu [13]: 0.86 | Kp uu [14]: 1.06 | Ke [15]: 0.015 min⁻¹
SMILES: CN(C)CCC[C@@]1(c2ccc(F)cc2)OCc2cc(C#N)ccc21 [ESCITALOPRAM]

SMILES: Cc1nc2n(c(=O)c1CCN1CCC(c3noc4cc(F)ccc34)CC1)CCCC2 [RISPERIDONE]
AUC(0-inf) [16]: 0.0591 µM·h | Cmax [17]: 20 nM | Tmax [18]: 1.25 h | Vd (Rattus norvegicus [19]): 21 L/kg | fraction unbound [20]: 0.16 | fAUC (Plasma [21]): 24022 nM·min | fCmax (Plasma [22]): 181 nM | Tmax [23]: 0.883 h | CL/F [24]: 307 mL/min/kg | ka (Rattus norvegicus [25]): 0.03 min⁻¹ | Vdu (Brain [26]): 10 mL/g | Ratio [27]: 0.14 | Kp uu [28]: 0.15 | Kp uu [29]: 0.21 | Ke [30]: 0.006 min⁻¹

SMILES: CN1CCN(C2=Nc3cc(Cl)ccc3Nc3ccccc32)CC1 [CLOZAPINE]
AUC(0-inf) [31]: 0.0443 µM·h | Cmax [32]: 6 nM | Tmax [33]: 4 h | AUC(0-inf) [34]: 5.39 µM·h | fraction unbound [35]: 0.061 | fAUC (Plasma [36]): 19732 nM·min | fCmax (Plasma [37]): 77 nM | Tmax [38]: 1 h | Vdu (Brain [39]): 70 mL/g | Kp uu [40]: 0.15 | Kp uu [41]: 0.13

AUC(0-inf) [31]: 0.0134 µM·h | Cmax [32]: 2 nM | Tmax [33]: 4.63 h | Vd (Rattus norvegicus [42]): 607 L/kg | fraction unbound [35]: 0.11 | fAUC (Plasma [36]): 32296 nM·min | fCmax (Plasma [37]): 90 nM | Tmax [38]: 1.05 h | CL/F [43]: 1600 mL/min/kg | ka (Rattus norvegicus [44]): 0.5 min⁻¹ | Vdu (Brain [39]): 82 mL/g | Ratio [45]: 0.05 | Kp uu [40]: 0.03 | Kp uu [41]: 0.04 | Ke [46]: 0.006 min⁻¹
SMILES: Clc1ccc2c(c1)N=C(N1CCNCC1)c1ccccc1N2 [N-DESMETHYLCLOZAPINE]
